A short description of data set [1]: percentage of injected PF material still in the liver of mice after stated weeks. It is filed as in vivo. An excerpt:
As indicated above, retention of the material in the body is important. The data below compare perfluorinated tributylamine (PFTBA), decalin (PFD), and methyldecalin (PFMD), with certain of the perfluorinated polycyclic hydrocarbons of this invention which have been obtained by perfluorinating the said polycyclic materials with just CoF3. Thus, in the table below "PFDMA" is the perfluorinated product derived from dimethyladamantane, i.e. a mixture of perfluorotrimethylbicyclo [3.3.1]nonane containing about 25 percent of other materials, principally perfluorinated dimethyladamantane. "PFMA" is the perfluorinated product of methyladamantane i.e., a mixture of perfluorodimethylbicyclo [3.3.1]nonanecontaining an unidentified amount of other compounds including perfluoromethyladamantane. Finally, "PFTHDCP" is the product of tetrahydrodicyclopentadiene, i.e. perfluorobicyclo [5.3.0] decane containing about 50 percent of other materials, principally perfluorotetrahydrodicyclopentadiene.
Emulsions containing 10% of the material to be tested, surfactant and water are made up and tested in the manner specified in Science, Vol. 181, August 1973, page 681. Mice were injected with the various emulsions. The mice were killed at intervals thereafter, the liver analyzed, and the percentage of original amount of PF material injected and still in the liver was determined.

A short description of data set [2]: relative emulsion stability. It is filed as physicochemical. As for the experimental part:
(§1) The relative stability of a PFDMA emulsion and PFMA is excellent in that it is stable indefinitely, (e.g., over 6 months) at 4°-7° C whereas the PFD emulsion breaks down in several days at room temperature and in several weeks at 4°-7° C. PFTBA is also excellent. See for example the Journal of Microvascular Research, August 1974.

Data set [3] in a line: optical density / appearance of emulsion. It is filed as physicochemical. The note with it: for optical density of emulsion: emulsions prepared in the same manner. As for the experimental part: as §1
Data set [4] can be described thus: LD50 after infusion of emulsion. It is filed as in vivo. To be noted: emulsions: 10.9% PFD, 10% PFDMA, 5% PFMA, 10% PFTBA. An excerpt: The LD50 after infusion (ml/kg) of our materials compared with others are follows: […]

As to methyldecalin [PFMD], the “Percent of Dose in Liver After Stated Weeks” value (“Percent of Dose” below) was 30% in data set [1] (mouse, in vivo, 20160 min); 19% in data set [1] (mouse, in vivo, 60480 min); 2% in data set [1] (mouse, in vivo, 120960 min); 2% in data set [1] (mouse, in vivo, 201600 min).
As for `FC(F)(F)C(F)(F)C(F)(F)C(F)(F)N(C(F)(F)C(F)(F)C(F)(F)C(F)(F)F)C(F)(F)C(F)(F)C(F)(F)C(F)(F)F` [PFTBA, perfluorinated tributylamine], the “Percent of Dose” value in data set [1] (mice, injected emulsion containing 10% of material, 2 weeks) was determined as 38%; in data set [1] (mice, injected emulsion containing 10% of material, 6 weeks), 30%; in data set [1] (mice, injected emulsion containing 10% of material, 12 weeks), 30%; in data set [1] (mice, injected emulsion containing 10% of material, 20 weeks) it was 30%. Further, the “relative stability of emulsion (in words)” value in data set [2] (emulsion) is on record as “excellent”. Further, in data set [3], the “optical density of emulsion” value was determined as 2.2. The appearance of emulsion entry in data set [3] (in words) is reported as “very milky in appearance”. The “LD50 after infusion, 1 Hr.” value in data set [4] was found to be 200 mL/kg. In addition, the “LD50 after infusion, 3 Days” value in data set [4] worked out at 120 mL/kg. In addition, in data set [4], the “LD50 after infusion, 7 Days” value came out at 120 mL/kg.
As to `FC1(F)C(F)(F)C(F)(F)C2(F)C(F)(F)C(F)(F)C(F)(F)C(F)(F)C2(F)C1(F)F` (centres unmarked) [PFD, perfluorodecalin], the “Percent of Dose” value in data set [1] (mouse, in vivo, 20160 min) is given as 4%; in data set [1] (mouse, in vivo, 60480 min), 2%; in data set [1] (mouse, in vivo, 120960 min), 2%. Moreover, the “time to emulsion break down” value in data set [2] (4°-7° C) was “several weeks”; in data set [2] (room temperature), “several days”. Also, the “optical density of emulsion” value in data set [3] is on record as 0.4. The “LD50 after infusion, 1 Hr.” value in data set [4] was determined as 190 mL/kg. The “LD50 after infusion, 3 Days” value in data set [4] worked out at 160 mL/kg. In addition, the “LD50 after infusion, 7 Days” value in data set [4] was 159 mL/kg.

The values are drawn from patent publication US4105798A, “Perfluoro polycyclic compounds for use as synthetic blood and perfusion media” (Sun Ventures, Inc., priority 1977, dated 1978).
